Two compounds from ChEMBL document CHEMBL1148143, “Globulixanthones A and B, two new cytotoxic xanthones with isoprenoid groups from the root bark of Symphonia globulifera” (J Nat Prod, 2002) can be followed below.

Values after ≈ are worked out from the molar mass of the structure shown.

For the assay, the system named is KB. The assay is described as follows: Cytotoxicity against human KB cells. Type of assay: functional, cell-based.

For the compound `C=C(C)/C=C/c1cc2c(=O)c3c(O)cccc3oc2c(OC)c1O` [GLOBULIXANTHONE A], the IC50 (usually the concentration at which inhibition is half-maximal) was 2.15 µg/mL (≈ 6.63 µM).
In turn, `CC(C)=CCCC1(C)C=Cc2c(cc(O)c3oc4cccc(O)c4c(=O)c23)O1` (configuration not stated) [GLOBULIXANTHONE B] showed an IC50 of 1.78 µg/mL (≈ 4.7 µM).
